Assay results taken from the supplement of paper PMC10307832.

How the values were obtained:
Experiment in all cases: relative viability (nuclei count vs DMSO), 5 days (fraction); higher = more cells survive
[1] = compound: C1/C(=C\C2=CC=CS2)/C(=O)/C(=C/C3=CC=CS3)/C1 + COc1cc2c(Oc3ccc(NC(=O)C4(C(=O)Nc5ccc(F)cc5)CC4)cc3F)ccnc2cc1OCCCN1CCOCC1 [Foretinib] (partner 0.25 µM)
In short: (§1)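 Cells from lung cancer lines were seeded into 1536-well plates and, one day later, dosed by pin tool. Treatments were either a single drug or a fixed dose of an anchor drug with five library-drug doses (not always all listed) in √10 steps. After 5 days, nuclei were stained in a one-step fixation (final 0.05% Triton X-100, 1% formaldehyde, 1 ug/ml Hoechst) and counted on 4× images, and relative viability is the treated-to-vehicle nuclei ratio, as the median of duplicate plates.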

TPCA-1 + Alpelisib = compound: C1=CC(=CC=C1C2=CC(=C(S2)NC(=O)N)C(=O)N)F [TPCA-1] + Cc1nc(NC(=O)N2CCC[C@H]2C(N)=O)sc1-c1ccnc(C(C)(C)C(F)(F)F)c1 [Alpelisib] (partner 2 µM)
In short: as §1

TPCA-1 + Navitoclax = compound: C1=CC(=CC=C1C2=CC(=C(S2)NC(=O)N)C(=O)N)F [TPCA-1] + CC1(C)CCC(c2ccc(Cl)cc2)=C(CN2CCN(c3ccc(C(=O)NS(=O)(=O)c4ccc(N[C@H](CCN5CCOCC5)CSc5ccccc5)c(S(=O)(=O)C(F)(F)F)c4)cc3)CC2)C1 [Navitoclax] (partner 0.5 µM)
In short: as §1

[2] = compound: C[C@]12O[C@H](C[C@]1(O)CO)n1c3ccccc3c3c4c(c5c6ccccc6n2c5c31)CNC4=O [Lestaurtinib] + CC(=O)Nc1cccc(-n2c(=O)n(C3CC3)c(=O)c3c(Nc4ccc(I)cc4F)n(C)c(=O)c(C)c32)c1 [Trametinib] (partner 0.02 µM)
In short: as §1

Cell Line	relative viability ([1]; first compound 0.2 µM)	relative viability ([1]; first compound 0.6325 µM)	relative viability ([1]; first compound 2 µM)	relative viability ([1]; first compound 6.325 µM)	relative viability ([1]; first compound 20 µM)	relative viability (TPCA-1 + Alpelisib; first compound 0.04 µM)	relative viability (TPCA-1 + Alpelisib; first compound 0.1265 µM)	relative viability (TPCA-1 + Alpelisib; first compound 0.4 µM)	relative viability (TPCA-1 + Alpelisib; first compound 1.265 µM)	relative viability (TPCA-1 + Alpelisib; first compound 4 µM)	relative viability (TPCA-1 + Navitoclax; first compound 0.04 µM)	relative viability (TPCA-1 + Navitoclax; first compound 0.1265 µM)	relative viability (TPCA-1 + Navitoclax; first compound 0.4 µM)	relative viability (TPCA-1 + Navitoclax; first compound 1.265 µM)	relative viability (TPCA-1 + Navitoclax; first compound 4 µM)	relative viability ([2]; first compound 0.005 µM)	relative viability ([2]; first compound 0.01581 µM)	relative viability ([2]; first compound 0.05 µM)	relative viability ([2]; first compound 0.1581 µM)	relative viability ([2]; first compound 0.5 µM)
201T	1	1.09	1.25	0.752	1.02	1	0.998	1.01	1.08	0.983	1.2	1.17	1.19	1.2	1.25	0.744	0.758	0.76	0.837	0.721
A549	0.888	1.01	0.968		0.937	0.891	0.824	0.911	0.736	0.296	1.29	1.2	1.17	1.29	0.777					
A-427	1.04	1.01	1.06	0.992	1.16	1.13	1.04	1.14	1.06	1.06	0.945	0.898	0.997	0.899	0.93	0.783	0.807	0.729	0.344	0.203
ABC-1	0.984	0.991	1.1	0.617	1.2	1.38	0.98	0.847	0.967	0.591										
BEN	0.7	0.646	0.78	0.745	0.655	1.14	0.842	1.13	1.19	0.806	0.0874	0.0533	0.0644	0.0802	0.0674	1.23	1.43	0.998	0.709	0.553
CAL-12T	1.34	1.02	1.09	0.981	1.03	1.22	0.907	0.93	1.1	0.707	1.1	1.15	1.17	1.16	1.11	0.364	0.337	0.314	0.288	0.23
COR-L23	1.09	1.09	0.874	0.859	0.958	0.904	0.812	0.72	0.632	0.421	1.28	0.953	1.03	1.03	0.733	0.755	0.652	0.272	0.317	0.0849
COR-L 105	1.49	1.02	1.31		1.03	1.07	0.892	0.987	0.919	0.898	0.964	0.642	0.962	0.636	0.64	0.408	0.419	0.446	0.347	0.341
Calu-6	0.833	0.945	0.895	0.759	0.82	0.982	0.988	1.04	0.85	0.539	0.893	0.795	0.888	0.726	0.394					
ChaGo-K-1	0.912	1.01	0.857	0.797	0.41						0.959	0.927	1.13	0.98	0.406	0.899	1.02	0.704	0.773	0.645
EBC-1	0.112	0.091	0.0946	0.111	0.0934	0.843	0.77	0.892	0.933	0.626	0.355	0.397	0.564	0.351	0.293					
EKVX	0.82	0.696	0.603	0.615	0.778	0.913	0.838	0.934	0.726	0.795	0.956	0.818	0.913	0.793	0.836	0.507		0.362	0.372	0.356
EMC-BAC-2	1.01	1.03	0.973	0.656	1.09	0.791	0.705	0.721	0.724	0.589	1.21	1.19	1.14	1.13	1.01	0.926	0.905	0.973	0.748	0.415
EPLC-272H	0.602	0.776	0.657	0.594	0.601	1.09	0.793	1.06	0.851	0.863	1.28	0.969	0.934	1.01	0.821	0.271	0.23	0.218	0.224	0.286
H3255	0.847	1.09	1.1	0.819	0.83	0.784	0.655	0.642	0.529	0.554	0.536	0.507	0.473	0.396	0.242	0.587	0.787	0.496	0.546	0.386
HARA	0.875	0.992	0.973	0.832	0.842	0.952	0.675	1.01	0.725	0.6	1.13	1.08	1.16	1.08	1.08	0.639	0.832	0.685	1.09	0.268
HCC-15	1.09	0.994	1.03	0.917	1.06	0.862	0.705	0.915	0.863	0.779	0.825	0.64	0.682	0.686	0.519	0.405	0.409	0.306	0.364	0.189
